Source: patent publication US9951042B2, “Polymorphic form of [5-fluoro-3-({2-[(4-fluorobenzene) sulfonyl] pyridin-3-yl}methyl)-2-methylindol-1-yl]-acetic acid” (Atopix Therapeutics Limited, priority 2014, dated 2018)
Converted amounts (≈) assume the structure as drawn. “Also recorded” adds a separate entry of the source.

Experiments:
[1] = TG-FTIR thermogravimetry; type: physicochemical; conditions: 25° C. to 250° C., heating rate 10° C./min
Method: TG-FTIR: Thermogravimetric measurements were carried out with a Netzsch Thermo-Microbalance TG 209 coupled to a Bruker FTIR Spectrometer Vector 22 or IFS 28 (sample pans with a pinhole, N2 atmosphere, heating rate 10° C./min, range 25° C. up to 250° C.).
Batch 3 was analyzed by TG-FTIR in a temperature range of 25° C. to 250° C. and a heating rate of 10° C./min. […] Decomposition occurs above ˜160° C. Therefore the material is likely a non-solvated form.

[2] = Thermodynamic stability of polymorphic forms (suspension equilibration); type: physicochemical
Method: Polymorphic Form 3 has a melting signal at 200° C. as measured by differential scanning calorimetry and is stable at temperatures above about 60-65° C.
A mixture with similar ratios of the products of Example 4, Experiment 15 (Form 1), Example 4, Experiment 9 (form 2+x) and Example 4, Experiment 6 (Form 2+Form 3) were suspended in acetonitrile and shaken for 13 days at 22° C. to give a product designated Product P24). The solid was recovered by filter centrifugation and characterized by PXRD. […] These signals could be assigned to (i) another crystalline form or (ii) the signals could not be detected for Product P24 because the diffractogram has a lower intensity.
Thus, after 13 days at 22° C. the PXRD corresponds to that of Form 2.

[3] = Solubility of polymorphic forms in simulated intestinal fluids by HPLC; type: physicochemical; conditions: for Solubility / pH of Saturated solution: 25° C., equilibrated 24 hours
Method: The solubility of Form 1, Form 2 and Form 3 was determined by HPLC in fasted state simulated intestinal fluid (FaSSIF) and fed state simulated intestinal fluid (FeSSIF) at 25° C. FaSSIF and FeSSIF were prepared from SIF powder, available at PHARES, Switzerland. Suspensions of […] were prepared and equilibrated for 24 hours at 25° C. The suspensions were filtered. The pH values of the resulting saturated solutions were measured. The filtrates were diluted and analyzed by HPLC using a general, unoptimized method. The values listed below are averages over multiple repetitions. Additionally Raman spectra of the recovered solids were recorded.

[4] = Dynamic vapour sorption (DVS); type: physicochemical
Method: DVS (SPS): Sorption Measurement System SPS11-100n. The sample was placed in an Al crucible, and the sample was allowed to equilibrate at a given r.h. before starting a predefined humidity program. The used measurement program can be recognized in the corresponding figures (blue line).
In order to examine the behaviour of Batch 1 in the presence of variable water vapour pressure, the sample was analyzed by DVS. […] The sample was conditioned at 50% r.h. before starting a pre-defined humidity program with a scanning rate of 5% r.h. change per hour. Below 50% r.h. a continuous mass loss is observed. […] At relative humidities above 84% r.h. an increased water uptake is observed. At 95% r.h. no equilibrium is reached. This is typical for amorphous material. At the end of the measurement (end humidity 50% r.h.) the sample has a 0.6% higher mass as the starting material. The sample was checked by FT-Raman (pre- and post DVS measurements).

[5] = biological target: T1, CRTH2 receptor (Homo sapiens, UniProt Q9Y5Y4); conditions: cited from earlier work
T1 sequence (Q9Y5Y4 1-395): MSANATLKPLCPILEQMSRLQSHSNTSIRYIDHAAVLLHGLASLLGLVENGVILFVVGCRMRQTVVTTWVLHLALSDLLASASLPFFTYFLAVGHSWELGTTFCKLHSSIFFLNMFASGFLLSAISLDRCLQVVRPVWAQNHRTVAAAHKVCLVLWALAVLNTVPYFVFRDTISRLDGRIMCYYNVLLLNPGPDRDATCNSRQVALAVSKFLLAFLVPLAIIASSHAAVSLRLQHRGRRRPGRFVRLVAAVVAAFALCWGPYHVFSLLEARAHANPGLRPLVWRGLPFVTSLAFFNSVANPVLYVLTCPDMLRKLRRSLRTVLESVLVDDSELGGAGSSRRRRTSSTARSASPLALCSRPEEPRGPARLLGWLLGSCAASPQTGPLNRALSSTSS

| Compound | Temperature range of thermodynamic stability [2] | Solubility ([3]; FaSSIF) [µg/mL] | pH of Saturated solution ([3]; FaSSIF) | Solubility ([3]; FeSSIF) [µg/mL] | pH of Saturated solution ([3]; FeSSIF) | further results |
| --- | --- | --- | --- | --- | --- | --- |
| Cc1c(Cc2cccnc2S(=O)(=O)c2ccc(F)cc2)c2cc(F)ccc2n1CC(=O)O [Batch 3, [5-fluoro-3-({2-[(4-fluorobenzene)sulfonyl]pyridin-3-yl}methyl)-2-methylindol-1-yl]-acetic acid] |  |  |  |  |  | Decomposition temperature [1]: > 160 °C |
| Cc1c(Cc2cccnc2S(=O)(=O)c2ccc(F)cc2)c2cc(F)ccc2n1CC(=O)O [Form 3, [5-fluoro-3-({2-[(4-fluorobenzene)sulfonyl]pyridin-3-yl}methyl)-2-methylindol-1-yl]-acetic acid] | 60-65 °C | 1310 (≈ 2870 µM) | 5.4 | 2120 (≈ 4640 µM) | 5.0 | Comparative solubility among crystalline forms ([3]; FaSSIF and FeSSIF): most soluble crystalline form; also recorded: more soluble in both FaSSIF and FeSSIF |
| Cc1c(Cc2cccnc2S(=O)(=O)c2ccc(F)cc2)c2cc(F)ccc2n1CC(=O)O [Batch 1, [5-fluoro-3-({2-[(4-fluorobenzene)sulfonyl]pyridin-3-yl}methyl)-2-methylindol-1-yl]-acetic acid] |  |  |  |  |  | Mass change at end of DVS measurement versus starting material ([4]; end humidity 50% r.h., 5% r.h. change per hour): 0.6%; Phase transition after DVS (FT-Raman pre- and post) ([4]; sample recovered from DVS): no phase transition |
| Cc1c(Cc2cccnc2S(=O)(=O)c2ccc(F)cc2)c2cc(F)ccc2n1CC(=O)O [Form 2, [5-fluoro-3-({2-[(4-fluorobenzene)sulfonyl]pyridin-3-yl}methyl)-2-methylindol-1-yl]-acetic acid] | 60-65 °C | 550 (≈ 1200 µM) | 6.1 | 350 (≈ 767 µM) | 5.0 | Most stable form after suspension equilibration of a mixture of forms ([2]; acetonitrile, 13 days at 22° C., PXRD): most stable form at room temperature |
| Cc1c(Cc2cccnc2S(=O)(=O)c2ccc(F)cc2)c2cc(F)ccc2n1CC(=O)O [Compound 1, [5-fluoro-3-({2-[(4-fluorobenzene)sulfonyl]pyridin-3-yl}methyl)-2-methylindol-1-yl]-acetic acid] |  |  |  |  |  | CRTH2 antagonist activity [5]: has CRTH2 antagonist activity |
| Cc1c(Cc2cccnc2S(=O)(=O)c2ccc(F)cc2)c2cc(F)ccc2n1CC(=O)O [Form 1, [5-fluoro-3-({2-[(4-fluorobenzene)sulfonyl]pyridin-3-yl}methyl)-2-methylindol-1-yl]-acetic acid] | thermodynamically stable at high temperatures | 720 (≈ 1580 µM) | 5.7 | 1180 (≈ 2590 µM) | 4.9 |  |
